Source: patent US20090253650A1, “Teat antiseptic prepared from polysaccharide gel with bactericidal and immuno-stimulating activity isolated from durian fruit-rind” (priority 2008, published 2009)

Test system: peritoneal leukocyte
Assay: Peritoneal leukocyte count in mice after intraperitoneal injection
Type: in vivo
Conditions: 3% thioglycollate (positive control)

Substance: thioglycollate
- Number of Lymphocyte (mean ± S.E.): 0.86 ± 0.14 ×10^6 cell/ml
